Measured values reported in patent US4444690A, “Technetium chelates” (priority 1982, dated 1984).
Where “and” joins values, the source holds several entries; their conditions need not be identical. Equal entries are not always repeated. Where two headings read alike, the source gives them in different places.

Assays:
[1] = cited from earlier work
[2] = system: plasma proteins; details: cited from earlier work
[3] = system: renal tubular transport; details: mouse, in vivo; for Blood / Intestines / Kidneys / Liver: 10 min
Description: (§3) A dose of 50 mg/kg of probenicid was given 10 minutes prior to injection of radiochemicals. OIH was injected simultaneously.
(§4) *Values are mean and S.E.M. percent injected dose at 10 min. post

[4] = mouse, in vivo, 5 min; cited from earlier work
[5] = rat, in vivo; cited from earlier work
[6] = rat, in vivo, iv, 1.5 h; cited from earlier work
[7] = human, in vivo; cited from earlier work
[8] = rats, 90 minutes; for biliary excretion of radioactivity in the absence of renal function: renal pedicles ligated
Description: (§1) Organ biodistribution and acute toxicity studies were carried out in mice, blood disappearance and bile appearance rates were determined by sampling of bood or bile in rats, and renal excretion rates of the two Tc-2,3-bis(mercaptoacetamido)propanoic acid components, Tc-DTPA, and OIH were determined in rabbits because of greater ease of urine sampling. The HPLC-purified Tc-2,3-bis(mercaptoacetamido)propanoate components were used directly except for dilution as necessary. In general HPLC collected volumes were 1 to 1.5 ml and were not diluted for rabbit studies, were diluted 2- to 10-fold for rat studies and were diluted about 20-fold for mouse studies. In most cases determinations were made with simultaneous administration of OIH.
These determinations were made in male Sprague-Dawley rats. For blood studies the animals were anesthetized with sodium pentobarbital, a line was placed in a femoral vein for tracer injections and hydration, and another was placed in a carotid artery for blood sampling. About 20μCi (0.25 ml) each of OIH and Tc-99m complex under study were injected and 0.1 to 0.2 ml samples of blood were taken at 1, 2, 3, 4, 5, 6, 9, 12, 15, 20, 25, 30, 45, 60, 75, and 90 minutes after injection. Biliary excretion in the absence of renal function was determined by cannulating the common bile duct, ligating the renal pedicles, and collecting bile in 4-minute fractions for 90 minutes.

[9] = Organ biodistribution time course of Tc-CO2-DADS components in mice (Table 1); format: in vivo, Hal Cr female albino mice; details: for Blood / Intestines / Stomach / Urine / Kidneys / Liver: mean of 6; for OIH Urine: mouse, in vivo
Description: The time course of organ distribution was determined in groups of six Hal Cr female albino mice. They were injected with 0.10 ml (0.5 uCi) of the preparation. For comparison purposes, 0.2 uCi OIH was added to each injection. The mice were placed in metabolic cages for the collection of excreted urine. At indicated intervals after injection, the urethra was ligated and the mice killed with chloroform vapor. The organs were removed and counted in a dual channel counter with correction for I-131 crossover into the Tc-99m channel.

[10] = system: plasma proteins; assay: Plasma protein binding, ultrafiltration; format: in vitro ADME
Description: (§2) Studies of protein binding were carried out in plasma using an ultrafiltration method described at J.Nucl.Med. 22, 258-263, 1981.

[11] = Blood disappearance rates in rats (FIG. 3); format: in vivo, male Sprague-Dawley rats
Description: These determinations were made in male Sprague-Dawley rats.

[12] = for renal excretion (urine appearance) in words: rabbits, FIG. 4
Description: as §1
The rate of renal excretion was measured in New Zealand albino male rabbits. They were anesthetized with ketamine and xylazine and placed on a gamma camera provided with digital storage. After injection of 0.5 to 1 mCi of the Tc-99m complex containing 0.5μCi of OIH, images were collected on tape for 45 minutes. At 35 minutes after injection, urine was expelled from the bladder and the percentage of injected dose contained in the expelled urine was determined. Accumulation of bladder radioactivity was monitored by placing a region of interest over the bladder. The drop in the radioactivity in the bladder after expelling the urine sample (50-80% of the bladder radioactivity) allowed calibration of the bladder time-activity curve in terms of percent injected dose.

[13] = Plasma protein binding, ultrafiltration; format: in vitro ADME; details: plasma, duplicate determinations, read-out: binding to plasma proteins (converted)
Description: as §2

[14] = system: renal tubular transport; assay: Tubular transport inhibition study with probenicid (Table 2); details: mice; for Blood / Intestines / Kidneys / Liver / Urine (renal excretion): 10 min post injection; for Urine (renal excretion): 10 min
Description: as §3, §4

[15] = mice, 5 min post injection, listed as Tc--CO2 --DADS--A
[16] = mice, 5 min post injection, listed as component A
[17] = mice, 10 min post injection, listed as Tc--CO2 --DADS--A
[18] = mice, 30 min post injection, listed as Tc--CO2 --DADS--A
[19] = mice, 120 min post injection, listed as Tc--CO2 --DADS--A
[20] = animals with normal renal function
[21] = probenicid treated (50 mg/kg, 10 min prior)

Compound: Tc-99m diethylenetriaminepentaacetic acid [Tc-99m DTPA]
- extraction efficiency ([1]; in vivo): ≤ 20%

Compound: 1,2-Bis(mercaptoacetamido)ethane [Tc-DADS]
- protein binding value [2]: 95%
- decrease in renal excretion with probenicid, in words [3]: decrease in renal excretion of Tc-DADS to a much greater extent than OIH
- Blood [3]: 1.85 percent injected dose
- Intestines [3]: 4.69 percent injected dose
- Kidneys [3]: 4.25 percent injected dose
- Liver [3]: 2.24 percent injected dose
- Kidneys [4]: 12.6 % of the dose
- in the urine [4]: 28%
- time at which radioactivity remaining in the blood was 2% [5]: 68 min
- time at which radioactivity remaining in the blood was 5% [5]: 19 min
- biliary excretion of radioactivity in the absence of renal function [6]: 19%
- renal retention ([1]; in vivo): no evidence of significant renal retention
- distribution of radioactivity [7]: confined radioactivity to the vascular system rather than the extracellular space as with Tc-DTPA
- effect of decreased renal function on renal excretion [7]: decreased renal function reduced renal excretion of Tc-DADS to a greater extent than OIH
- hepatobiliary excretion [7]: hepatobiliary excretion became significant

Compound: O=C(O)C1C[N]2C(=O)C[S][99Tc-]23(=[O])[S]CC(=O)[N]13 (single isomer, unassigned) [Tc-2,3-bis(mercaptoacetamido)propanoate-A] [Tc-99m-2,3-bis(mercaptoacetamido)propanoate]
- radioactivity in muscle ([8]; absence of renal function): 22%
- radioactivity in the blood ([8]; absence of renal function): 21%
- radioactivity in the kidneys ([8]; absence of renal function): 1%
- radioactivity in the liver ([8]; absence of renal function): 4%
- radioactivity in the spleen ([8]; absence of renal function): 0.1%
- radioactivity in the stomach ([8]; absence of renal function): 0.3%
- biliary excretion of radioactivity in the absence of renal function [8]: less than 3%
- biliary excretion of radioactivity in the absence of renal function ([8]; listed as Tc-99m-2,3-bis(mercaptoacetamido)propanoate-A): 3.1%
- biliary excretion with probenicid, in words [3]: not increased significantly
- liver radioactivity with probenicid, in words [3]: Biliary excretion was not increased significantly for component A, but liver radioactivity was
- Blood [3]: 3.37 percent injected dose
- Intestines [3]: 0.77 percent injected dose
- Kidneys [3]: 2.53 percent injected dose
- Liver [3]: 4.21 percent injected dose
- Blood ([9]; mice, 5 min post injection): 8.19 percent injected dose
- Intestines ([9]; mice, 5 min post injection): 1.61 percent injected dose
- Stomach ([9]; mice, 5 min post injection): 0.24 percent injected dose
- Urine ([9]; mice, 5 min post injection, listed as Tc-2,3-bis(mercaptoacetmido)propanoate-A, 5 min): 45 percent injected dose
- Kidneys [9, 15]: 5.61 percent injected dose
- Liver [9, 15]: 7.81 percent injected dose
- Urine ([9]; mice, 5 min post injection, listed as Tc--CO2 --DADS--A, 5 min): 45.52 percent injected dose
- Kidneys [9, 16]: 5.6 percent injected dose
- Liver [9, 16]: about 8 percent injected dose
- Blood [9, 17]: 3.10 percent injected dose
- Intestines [9, 17]: 0.82 percent injected dose
- Kidneys [9, 17]: 2.23 percent injected dose
- Liver [9, 17]: 4.26 percent injected dose
- Stomach [9, 17]: 0.11 percent injected dose
- Urine ([9]; mice, 10 min post injection, listed as Tc--CO2 --DADS--A, 10 min): 67.97 percent injected dose
- Blood ([9]; mice, 15 min post injection): 1.95 percent injected dose
- Intestines ([9]; mice, 15 min post injection): 0.86 percent injected dose
- Kidneys ([9]; mice, 15 min post injection): 1.30 percent injected dose
- Liver ([9]; mice, 15 min post injection): 3.79 percent injected dose
- Stomach ([9]; mice, 15 min post injection): 0.09 percent injected dose
- Urine ([9]; mice, 15 min post injection): 75.08 percent injected dose
- Intestines ([9]; mice, 30 min post injection): 1.05 percent injected dose
- Liver ([9]; mice, 30 min post injection): 1.34 percent injected dose
- Stomach ([9]; mice, 30 min post injection): 0.07 percent injected dose
- Urine ([9]; mice, 30 min post injection): 80.82 percent injected dose
- Kidneys ([9]; mice, 30 min post injection, listed as Tc-2,3-bis(mercaptoacetmido)propanoate-A): less than 1 percent injected dose
- Blood [9, 18]: 0.59 percent injected dose
- Kidneys [9, 18]: 0.51 percent injected dose
- Blood ([9]; mice, 30 min post injection, listed as component A): 0.6 percent injected dose
- Blood [9, 19]: 0.21 percent injected dose
- Intestines [9, 19]: 1.46 percent injected dose
- Kidneys [9, 19]: 0.25 percent injected dose
- Liver [9, 19]: 0.78 percent injected dose
- Stomach [9, 19]: 0.04 percent injected dose
- Urine ([9]; mice, 120 min post injection, listed as Tc--CO2 --DADS--A, 120 min): 86.57 percent injected dose
- Liver ([9]; mice, 120 min post injection, listed as component A): less than 1 percent injected dose
- radioactivity seen in the intestine ([9]; mice, at any time interval): ≤ 1.6%
- renal excretion / clearance in words ([9]; mice, comparison with OIH or component A): slightly higher than or comparable to OIH in renal excretion
- protein binding in words [10]: high degree of protein binding
- binding to plasma proteins ([10]; 10 min): 93%
- binding to plasma proteins ([10]; 0.5 h): 94%
- time at which radioactivity remaining in the blood was 2% ([11]; rats): 36 min
- time at which radioactivity remaining in the blood was 5% ([11]; rats): 16.5 min
- blood disappearance in words ([11]; rats, FIG. 3): higher initial value resulted in comparable curve slopes
- blood disappearance in words ([11]; rats, FIG. 3, listed as component A): comparable to or slightly greater than that of OIH
- rate of renal excretion in words [12, 20]: equivalent to OIH
- specificity for renal excretion [12, 20]: nearly complete
- renal excretion (urine appearance) in words [12]: slightly greater extent than OIH although differences were only significant at 35 minutes (p<0.05)
- renal excretion (urine appearance) in words ([12]; listed as Component A): slightly faster than OIH from 10 minutes onward

Compound: O=C(O)CNC(=O)c1ccccc1[131I] [OIH, I-131 o-iodohippurate]
- OIH Urine ([9]; 5 min): 42.02 percent injected dose
- OIH Urine ([9]; 10 min): 64.94 percent injected dose
- OIH Urine ([9]; 0.25 h): 78.24 percent injected dose
- OIH Urine ([9]; 2 h): 82.43 percent injected dose
- fraction unbound at 10 min ([13]; 10 minutes): 0.36
- fraction unbound at 0.5 h ([13]; 30 minutes): 0.44
- blood disappearance in words ([11]; rat, in vivo): most rapid disappearance through 75 minutes
- extraction efficiency ([1]; renal): about 67%
- Blood ([14]; control): 4.58 percent injected dose
- Intestines ([14]; control): 1.12 percent injected dose
- Kidneys ([14]; control): 2.83 percent injected dose
- Liver ([14]; control): 1.31 percent injected dose
- Urine (renal excretion) ([14]; control): 64.94 percent injected dose and 65 percent injected dose
- decrease of renal excretion by probenicid treatment ([14]; 10 minutes): 20%
- Blood [14, 21]: 7.49 percent injected dose
- Intestines [14, 21]: 2.18 percent injected dose
- Kidneys [14, 21]: 3.79 percent injected dose
- Liver [14, 21]: 2.68 percent injected dose
- Urine (renal excretion) [14, 21]: 52.62 percent injected dose and 52 percent injected dose
